Measurements as given in article PMC11862924, “Phenylpyrazoles as Inhibitors of the m^6A RNA-Binding Protein YTHDF2” (JACS Au, 2025).
“Also recorded” adds a separate entry of the source.

What was measured:
[1] = MTT cytotoxicity assay, K562; type: cell-based; conditions: human, K562 cells, triplicates, read-out: Cytotoxicity against cancer cells (IC50), K562
Description: (§1) JAR, K562, and HCT116 cells were seeded in 96-well plates (3500 cells/well) and incubated for 8 h. The medium with different concentrations of compounds (100, 33.3, 11.1, 3.7, 1.2, and 0.4 μM) was added to the 96-well plates. Data were normalized to the medium with 0.1% DMSO. After incubation for 72 h, MTT solution (5 mg/mL, 20 μL) was added per well in a dark environment and incubated for 4 h. After the medium was discarded, DMSO (150 μL) was added per well, and the absorbance was measured at 492 nm by a plate reader (TECAN Spark).

JAR = test: CCK-8 proliferation assay, JAR; type: cell-based; conditions: Homo sapiens; CCK-8 kit assay, triplicates, 72 h; read-out: Anti-proliferation activity against cancer cells (IC50), JAR
Description: (§2) The JAR, K562, HCT116, and MOLM13 cells were seeded in 96-well plates (3000 cells/well). After being cultured overnight, compounds were added together with the DMSO treatment (0.1%) as a control. After 72 h, CCK-8 solution (Vazyme, A311) was added, and the cells were incubated at 37 °C for 4 h. The absorbance was measured at 450 nm using a plate reader (TECAN Spark).

K562 = test: CCK-8 proliferation assay, K562; type: cell-based; conditions: Homo sapiens, CCK-8 kit assay, triplicates, 72 h, read-out: Anti-proliferation activity against cancer cells (IC50), K562
Description: as §2

HCT116 = test: CCK-8 proliferation assay, HCT116; type: cell-based; conditions: Homo sapiens, HCT-116; CCK-8 kit assay, triplicates, 72 h; read-out: Anti-proliferation activity against cancer cells (IC50), HCT116
Description: as §2

[2] = target: T1, YTHDF2 (residues 383–553) (Homo sapiens, UniProt Q9Y5A9); test: Fluorescence polarization (FP) assay, YTHDF2–m6A RNA interaction; type: binding; conditions: 100 μM compound; YTHDF2 (residues 383–553, 20 nM), FAM-labeled m6A RNA probe 5 nM; average ± SD
T1 construct: A YTHDF2 YTH domain construct (residues 383–553) was subcloned to a pOPIN plasmid; made in house; host or cells: Escherichia coli BL21(DE3)
T1 sequence (Q9Y5A9 383-553): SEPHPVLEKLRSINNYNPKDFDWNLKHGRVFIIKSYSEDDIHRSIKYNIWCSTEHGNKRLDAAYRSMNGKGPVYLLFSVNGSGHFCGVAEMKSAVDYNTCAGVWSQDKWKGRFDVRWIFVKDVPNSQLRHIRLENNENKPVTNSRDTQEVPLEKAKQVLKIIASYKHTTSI
Description: The FP assay was performed in 384-well black plates (Corning no. 4514) with a total reaction volume of 15 μL. The final concentrations of protein (YTHDF2) and RNA were […], respectively, in a buffer containing 20 mM HEPES/KOH pH 7.5, 50 mM NaCl, 0.005% Tween 20, and 1 mM GSH (DTT). Compounds were incubated with protein, added FAM-m^6A RNA probe ([…](m6)ACUGUG) (purchased from IDT), and incubated at 4 °C for 30 min. The fluorescence polarization was measured using a plate reader (TECAN Spark) under an excitation wavelength of 485 nm and an emission wavelength of 535 nm with a bandwidth of 20 nm. […] The data were determined using GraphPad Prism 9.

[3] = MTT cytotoxicity assay, HCT116; type: cell-based; conditions: human, HCT116 cells, triplicates, read-out: Cytotoxicity against cancer cells (IC50), HCT116
Description: as §1

YTHDF2 [4] = target: T2, YTHDF2 (Homo sapiens, UniProt Q9Y5A9); test: nanoDSF thermal shift assay; type: binding; conditions: for ΔTm at 5 µM: 5 μM compound; for ΔTm at 10 µM: 10 μM compound; for ΔTm at 25 µM: 25 μM compound
T2 construct: A YTHDF2 YTH domain construct (residues 383–553) was subcloned to a pOPIN plasmid; made in house; host or cells: Escherichia coli BL21(DE3)
T2 sequence (Q9Y5A9 383-553): T1 sequence (Q9Y5A9 383-553)
Description: NanoDSF was measured on a NanoTemper instrument (Prometheus NT.48). YTHDF2 protein was used at a concentration of 5 μM and incubated with 50, 25, 10, and 5 μM compound in buffer (100 mM KPi, pH 7.0, 250 mM NaCl, 10% Glycerol) for 50 min, in which 0.1% DMSO was used as the reference. The heat rate was set to 1 °C per minute, measured in a range between 20 and 90 °C.

[5] = MTT cytotoxicity assay, JAR; type: cell-based; conditions: human, JAR cells, triplicates, read-out: Cytotoxicity against cancer cells (IC50), JAR
Description: as §1

YTHDF2 YTH domain = target: T3, YTHDF2 YTH domain (Homo sapiens, UniProt Q9Y5A9); test: AlphaScreen assay; conditions: for inhibition at 100 μM in AlphaScreen: 100 μM compound; for inhibitory IC50 in AlphaScreen (in words): Figures S3 and S4
T3 sequence (Q9Y5A9 383-553): T1 sequence (Q9Y5A9 383-553)
Description: Initially, the YTHDF2 YTH domain at different concentrations (0–2500 nM) was incubated with varied concentrations of RNA probes (5’-Bi-CGAm6ACUGUC–3′, IDT company) (5, 25, 50, and 100 nM) in 25 mM Hepes (pH 7.5), 100 mM NaCl, and 0.1% BSA to probe the optimal ratio between protein and RNA before the detection signal reached saturation. The AlphaScreen Histidine Detection Kit (Nickel Chelate) (PerkinElmer) 6760619 M and white 384-well Optiplates (PerkinElmer) were used. Anti-His receptor beads (PerkinElmer) (final concentration: 20 μg/mL) and streptavidin donor beads (final concentration: 20 μg/mL) were first added. The reaction mixture was then incubated at room temperature in a dark environment for 1 h to reach equilibrium. The optical signal was detected using a Tecan plate reader.
The inhibitory activities of the phenylpyrazoles (at 100 µM) against YTHDF2 binders
in the amplified luminescent proximity homogeneous assay (AlphaScreen).
phenylpyrazoles featuring a 2 -hydroxybenzoyl moiety R1 (blue) and a 4 -carboxyphenyl moiety
represent average values ± s.d.

YTHDF2 [6] = target: T2, YTHDF2; test: Electrophoretic mobility shift assay (EMSA); type: binding; conditions: for inhibition of the YTHDF2–m6A RNA interaction in EMSA at 100 μM (in words): 100 μM compound, 250 nM YTHDF2, FAM-labeled m6A RNA; for concentration-dependent inhibition of YTHDF2–m6A RNA complex formation in EMSA (in words): 3.1–100 μM compound, 250 nM YTHDF2, 20 nM FAM-labelled m6A RNA
Description: Compounds with different concentrations (3.1–100 μM) were incubated with 250 nM YTH-domain and 20 nM FAM-17mer-RNA in a buffer containing 20 mM HEPES, pH 8.2, 50 mM NaCl, 0.05% Triton X-100, and 5% v/v glycerol for 20 min at 4 °C. […] Gel imaging was performed in ChemiDoc MP (Bio-Rad), and Cy2/Alexa488 fluorescence was detected with a 1-min exposure time. Quantification of the gel image was performed by ImageJ.

METTL3 = test system: METTL3; set-up: method as in PMID 33902106; conditions: cited from earlier work

Row | Molecule | IC50 at 72 h [1] [µM] | IC50 (JAR) [µM] | IC50 (K562) [µM] | IC50 (HCT116) [µM] | inhibition at 100 µM [2] [%] | IC50 at 72 h [3] [µM] | ΔTm at 5 µM (YTHDF2 [4]) [°C] | ΔTm at 10 µM (YTHDF2 [4]) [°C] | ΔTm at 25 µM (YTHDF2 [4]) [°C] | IC50 at 72 h [5] [µM] | inhibition at 100 μM in AlphaScreen (YTHDF2 YTH domain) [%] | inhibitory IC50 in AlphaScreen (in words) (YTHDF2 YTH domain) | inhibition of the YTHDF2–m6A RNA interaction in EMSA at 100 μM (in words) (YTHDF2 [6]) | concentration-dependent inhibition of YTHDF2–m6A RNA complex formation in EMSA (in words) (YTHDF2 [6]) | inhibitory activity against METTL3 (in words) (METTL3)
1 | O=C(O)c1ccc(-n2cc(C(=O)c3cc(Cl)ccc3O)cn2)cc1 [CK-67] | 34.9 ± 13.4 | 38.5 ± 9.2 | 33.4 ± 3.3 | 41.6 ± 8.2 | 41.1 ± 7.7 | 48.5 ± 4.9 | 0.47 ± 0.11 | 1.35 ± 0.66 | 2.27 ± 0.26 | > 50 | > 80 | low double-digit micromolar | potent inhibition; also recorded: potently inhibited | dose-dependently inhibited | –
2 | STM2457 | – | – | – | – | – | – | – | – | – | – | – | – | – | – | nanomolar inhibitory activity
3 | COc1ccc(O)c(C(=O)c2cnn(-c3ccc(C(=O)O)cc3)c2)c1 [CK-66] | > 50 | 47.3 ± 6.3 | 38.8 ± 3.7 | 47.2 ± 8.7 | 63.2 ± 6.9 | > 50 | – | – | – | > 50 | > 80 | low double-digit micromolar | – | – | –
4 | O=C(O)c1ccc(-n2cc(C(=O)c3cc(F)ccc3O)cn2)cc1 [CK-56] | 23.9 ± 7.5 | > 50 | > 50 | > 50 | 37.4 ± 3.9 | 19.3 ± 2.5 | – | – | – | 41.2 ± 14.1 | – | – | potent inhibition | – | –
5 | O=C(O)c1ccc(-n2cc(C(=O)c3ccc(Br)cc3O)cn2)cc1 [CK-70] | 42.1 ± 14.6 | 48.5 ± 3.9 | 45.5 ± 6.2 | > 50 | 17.4 ± 10.5 | 36.4 ± 2.8 | 0.63 ± 0.08 | 1.42 ± 0.36 | 2.42 ± 0.24 | > 50 | – | – | potent inhibition; also recorded: potently inhibited | dose-dependently inhibited | –
6 | CC(C)c1ccc(O)c(C(=O)c2cnn(-c3ccc(C(=O)O)cc3)c2)c1 [CK-55] | 32.4 ± 22.1 | > 50 | 31.2 ± 8.9 | > 50 | 41.8 ± 3.2 | 49.5 ± 8.5 | 0.15 ± 0.14 | 0.43 ± 0.11 | 1.48 ± 0.52 | 44.4 ± 13.5 | > 80 | low double-digit micromolar | potent inhibition; also recorded: potently inhibited | dose-dependently inhibited | –
7 | CCc1ccc(O)c(C(=O)c2cnn(-c3ccc(C(=O)O)cc3)c2)c1 [CK-65] | > 50 | 45.6 ± 3.9 | 43.9 ± 12 | > 50 | 35.4 ± 6.5 | > 50 | – | – | – | > 50 | – | – | – | – | –
8 | O=C(O)c1ccc(-n2cc(C(=O)c3cc(F)cc(F)c3O)cn2)cc1 [CK-86] | > 50 | > 50 | > 50 | > 50 | 54.6 ± 8.4 | > 50 | – | – | – | > 50 | – | – | – | – | –
9 | O=C(c1cnn(-c2ccccc2F)c1)c1ccccc1O [CK-43] | 46.2 ± 10.1 | > 50 | > 50 | > 50 | 24.4 ± 2.1 | > 50 | – | – | – | > 50 | – | – | – | – | –
10 | O=C(c1cnn(-c2ccc(F)cc2)c1)c1ccccc1O [CK-26] | 23.4 ± 9.4 | 31.2 ± 6.4 | 21.5 ± 1.9 | 43.2 ± 5.3 | 10.7 ± 7.2 | 29.4 ± 10.4 | – | – | – | 47.2 ± 15.5 | – | – | – | – | –
11 | Cc1ccc(O)c(C(=O)c2cnn(-c3ccc(C(=O)O)cc3)c2)c1 [CK-54] | > 50 | > 50 | > 50 | > 50 | 20.9 ± 3.8 | > 50 | – | – | – | > 50 | – | – | – | – | –
12 | O=C(O)c1ccc(-n2cc(C(=O)c3ccc(Cl)cc3O)cn2)cc1 [CK-88] | 43.2 ± 10.4 | 39 ± 3.2 | 48.2 ± 6.3 | > 50 | 28.8 ± 0.1 | > 50 | – | – | – | 25 ± 3.6 | – | – | – | – | –
13 | O=C(O)c1ccc(-n2cc(C(=O)c3cc([N+](=O)[O-])ccc3O)cn2)cc1 [CK-62] | > 50 | > 50 | > 50 | > 50 | 34.4 ± 7.1 | > 50 | 0.3 ± 0.05 | 0.5 ± 0.14 | 0.48 ± 0.3 | 42.6 ± 18.5 | – | – | potent inhibition; also recorded: potently inhibited | dose-dependently inhibited | –
14 | Cc1ccc(-n2cc(C(=O)c3ccccc3O)cn2)cc1 [CK-51] | 20.2 ± 15.4 | > 50 | 30.1 ± 6.3 | > 50 | 4.1 ± 3.7 | 18.5 ± 9.4 | – | – | – | 32.9 ± 14.2 | – | – | – | – | –
